We go through 13 compounds from PMC5442318, “Hundreds of dual-stage antimalarial molecules discovered by a functional gametocyte screen” (Nature Communications, 2017).

Data set [1] concerns P. falciparum stage V female gametocytes. Nature of the data set: P. falciparum female gametocyte activation assay (Pf FGAA), 24 h or 48 h preincubation, Pfs25 expression readout. The class given is cell-based, Plasmodium falciparum NF54. The following applies: mean; P. falciparum female gametocyte activation assay; read-out: Gametocytes mean Pf FGAA IC50. The method in brief: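 Female activation, triggered by xanthurenic acid and cooling, was scored by imaging Cy3-labelled anti-Pfs25 female gametes after 24 h at 26 °C. Beforehand, purified NF54 stage V gametocytes had been incubated with compound for either 24 h or 48 h (37 °C, 3% O2). Values are pIC50 from full-curve regression.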

The test system of the next data set is HepG2 cells. The experiment in a line: HepG2 cytotoxicity assay. The settings on record: mean; HepG2 cells. The class given is cell-based. The method in brief: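 Cell viability is measured by CellTiter-Glo luminescence. Signal is developed at room temperature and read 10 min after adding the reagent, with plates and reagent first equilibrated for 30 min.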

Data set [2] concerns P. falciparum asexual blood stages. The following applies: TCAMS asexual blood stage data; ref 1 (Gamo, F. J. et al., Nature 465, 305-310, 2010); read-out: Pf Asexual blood stages XC50; cited from earlier work.
In data set [3] the test system is P. falciparum stages IV–V gametocytes. Nature of the data set: Gametocytocidal ATP-depletion assay (gametocyte ATP bioluminescence). The format is cell-based, Plasmodium falciparum. The procedure, abridged: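 Read-out is luciferase luminescence of parasite ATP (BacTiter-Glo), standing in for viability. Double-purified mature stage IV–V gametocytes, 12,500 per well, were exposed 48 h at 37 °C in low-O2 gas; screening concentration 2 μM.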

Take `CCN(CC)CCN(Cc1ccc(-c2ccc(C(F)(F)F)cc2)cc1)C(=O)Cn1cc(Cc2cnn(C)c2)c(=O)nc1/C=C/c1cccc(F)c1F` [TCMDC-140964]: the figures for the IC50 in data set [1] and in data set [2] were 870 nM and 960 nM, respectively. For the same compound, in the data set with HepG2 cells, the “HepG2 cells mean TOX50” value was 9.69 µM. Moreover, the “Gametocytes mean ATP inhibition at 2µM” value in data set [3] is 69.60%.
On to `CC(C)(CNC(=O)[C@H]1CCCN1)c1nc(-c2ccc(Cl)c(O)c2)c(-c2ccncc2)[nH]1.Cl` [TCMDC-141060], for which the IC50 is 1210 nM in data set [1] and 1270 nM in data set [2]. The “HepG2 cells mean TOX50” value in the data set with HepG2 cells worked out at 32.74 µM. Further, in data set [3], the “Gametocytes mean ATP inhibition at 2µM” value is recorded as -7.23%.
On to `CC1(CCN2CCC(c3c[nH]c4cnccc34)CC2)CCCc2c(Br)cccc2C1=O.Cl` (stereo not shown) [TCMDC-141171], for which the IC50 in data set [1] was 1730 nM; in data set [2], 190 nM. In the data set with HepG2 cells, the “HepG2 cells mean TOX50” value is 5.25 µM. Besides, the “Gametocytes mean ATP inhibition at 2µM” value in data set [3] is on record as 10.47%.
Turning to `CC(C)(CN)c1cc(-c2ccc(Cl)c(O)c2)c(-c2ccncc2)o1.Cl` [TCMDC-141334], the values for the IC50 in data set [1] and in data set [2] were 420 nM and 1140 nM, respectively. Also, the “HepG2 cells mean TOX50” value in the data set with HepG2 cells was found to be 9.98 µM. In data set [3], the “Gametocytes mean ATP inhibition at 2µM” value is listed as -5.00%.
As to `CN1CCN(c2ccc(Nc3ncc([N+](=O)[O-])c(Nc4ccccc4O)n3)cc2)CC1.O=C(O)C(F)(F)F` [TCMDC-141372], the results for the IC50 in data set [1] and in data set [2] were 2010 nM and 720 nM, respectively. For the same compound, the “HepG2 cells mean TOX50” value with HepG2 cells came to 1.82 µM. For the same compound, in data set [3], the “Gametocytes mean ATP inhibition at 2µM” value is -21.03%.
Take `ON=C1CCc2cc(-c3cc(-c4ccc(OC5CCNCC5)cc4)oc3-c3ccncc3)ccc21` [TCMDC-141381]: the IC50 in data set [1] was 200 nM; in data set [2] it was 160 nM. Also, the “HepG2 cells mean TOX50” value in the data set on HepG2 cells came out at 5.01 µM. In addition, the “Gametocytes mean ATP inhibition at 2µM” value in data set [3] is reported as 40.68%.
Consider `O=C(Nc1ccc(Cl)cc1)c1cc(Cl)cc2nc(C(F)(F)F)[nH]c12` [TCMDC-141586], for which the results for the IC50 in data set [1] and in data set [2] were 1700 nM and 130 nM, respectively. For the same compound, the “HepG2 cells mean TOX50” value with HepG2 cells stood at 2.82 µM. Besides, the “Gametocytes mean ATP inhibition at 2µM” value in data set [3] is 39.06%.
As for `CN1CCCC1CCNc1ncc2c(-c3ccc(NC(=O)Nc4cc(C(F)(F)F)ccc4F)c(F)c3)nn(C)c2n1.O=C(O)C(F)(F)F` (stereo not shown) [TCMDC-141610], the values for the IC50 in data set [1] and in data set [2] were 1470 nM and 290 nM, respectively. Moreover, the “HepG2 cells mean TOX50” value with HepG2 cells is on record as 4.62 µM. Moreover, the “Gametocytes mean ATP inhibition at 2µM” value in data set [3] is on record as -9.33%.
With `Cc1ccc(Cn2nc(Cl)c(N3CCCNCC3)cc2=O)cc1NC(=O)Nc1ccc(-c2ccccc2)cc1.O=C(O)C(F)(F)F` [TCMDC-141697], the IC50 in data set [1] is 990 nM; in data set [2], 670 nM. For the same compound, the “HepG2 cells mean TOX50” value in the data set with HepG2 cells is 7.25 µM. In data set [3], the “Gametocytes mean ATP inhibition at 2µM” value was -13.94%.
With `Cc1c(Cn2nc(Cl)c(N3CCNCC3)cc2=O)cccc1NC(=O)Nc1ccc(-c2ccccc2)cc1.O=C(O)C(F)(F)F` [TCMDC-141699], the IC50 in data set [1] is 4910 nM; in data set [2] it was 1380 nM. The “HepG2 cells mean TOX50” value in the data set on HepG2 cells is 4.22 µM. Further, the “Gametocytes mean ATP inhibition at 2µM” value in data set [3] is -8.75%.
`Cl.O=S(=O)(Nc1cc2c(cc1OCCCN1CCCCC1)CCNCC2)c1ccc(-c2ccc(Cl)cc2)cc1` [TCMDC-141753]: the IC50 in data set [1] is 2000 nM; in data set [2], 1010 nM. Further, the “HepG2 cells mean TOX50” value in the data set with HepG2 cells turned out to be 4.37 µM. Besides, the “Gametocytes mean ATP inhibition at 2µM” value in data set [3] was -0.045%.
Regarding `CN1CCc2cc(NS(=O)(=O)c3ccc(-c4ccc(Cl)cc4)cc3)c(OCCCN3CCCCC3)cc2CC1.Cl` [TCMDC-141754], the IC50 in data set [1] is 970 nM; in data set [2], 960 nM. Moreover, the “HepG2 cells mean TOX50” value in the data set with HepG2 cells came to 2.23 µM. Also, the “Gametocytes mean ATP inhibition at 2µM” value in data set [3] worked out at 6.66%.
`Cc1cc(F)ccc1-c1nc(NCCCNCCc2ccccc2)nc2c1ccc(=O)n2-c1c(F)cccc1F.O=C(O)C(F)(F)F` [TCMDC-141804]: the values for the IC50 in data set [1] and in data set [2] were 3610 nM and 190 nM, respectively. For the same compound, in the data set with HepG2 cells, the “HepG2 cells mean TOX50” value stood at 12.59 µM. Besides, in data set [3], the “Gametocytes mean ATP inhibition at 2µM” value is reported as 82.21%.
